Literature values as cited in patent US20250340636A1, “ANTIBODIES TARGETING L1CAM AND USES THEREOF” (MEMORIAL SLOAN-KETTERING CANCER CENTER, priority 2023, published 2025).

Details: free drug, mice (Quintieri et al. 2005); cited from earlier work

COc1cccc2c1C(=O)c1c(O)c3c(c(O)c1C2=O)C[C@@](O)(C(=O)CO)C[C@@H]3O[C@H]1C[C@H]2[C@H](O[C@@H]3[C@@H](OC)OCCN32)[C@H](C)O1 [PNU-159682]
maximum tolerated dose: 0.015 mg/kg
